Read-outs that look alike come from different tables or passages of the source. Where a SMILES comes first, the peptide text is derived from it. Bridges are numbered along the chain shown (N, C = ends). Roman numbers before positions name the chains, in order. Triazole bridges read from a SMILES are 1,4-linked. Where no end group is shown, it is not given here. [ ]: non-standard residue; d: D form. Lys(N3) = [N-]=[N+]=NCCCC[C@H](N)C(=O)O; Cit = NC(=O)NCCC[C@H](N)C(=O)O; d(hCys) = N[C@H](CCS)C(=O)O; PEG3 = NCCOCCOCCOCCC(=O)O; Pra = C#CC[C@H](N)C(=O)O
Key:
[1] = biological target: T1, recombinant human GST-MDM2 (Homo sapiens, UniProt Q00987); assay: Fluorescence polarization binding of Cy5-labeled peptides to MDM2; details: 20 nM Cy5-labeled peptide, FP buffer pH 7.4, 30 min room temperature; performed twice in technical triplicates
T1 construct: purchased R&D Systems
Description: (B) Fluorescence polarization measurement of 20 nM Cy5-labeled peptides binding to recombinant human GST-MDM2.
20 nM of Cy5-labeled peptides were added to dilutions of human MDM2 (Recombinant Human GST -
MDM2/HDM2, R&D Systems) in FP buffer (50 mM tris(hydroxymethyl)aminomethane (Tris, Carl Roth),
150 mM sodium chloride (Sigma), 1 mM EDTA (Sigma), 0.01% (v/v) Tween20 (Sigma), pH 7.4) and
incubated for 30 min at room temperature. Fluorescence polarization was then measured in a Tecan
Spark plate reader (λex = 640 nm, λem = 670 nm). Measurements were performed twice in technical
triplicates. Data was then fit with Prism 10 (GraphPad) using non-linear regression with the following
solution to the quadratic binding equation 1 to obtain Kd:
𝐹𝑃 = 𝐹𝑃 + (𝐹𝑃 − 𝐹𝑃 ) ∗ 𝑐 + 𝑐 + 𝐾 − 𝑝𝑒𝑝𝑡𝑖𝑑𝑒 𝑀𝐷𝑀2 𝑑 𝑝𝑒𝑝𝑡𝑖𝑑𝑒 𝑀𝐷𝑀2

CMKLR1 = biological target: T2, CMKLR1 (Homo sapiens, UniProt Q99788); assay: Ca2+ flux assay in COS-7_CMKLR1-eYFP_Δ6Gαqi4myr cells; assay type: cell-based; details: maximum signal over baseline normalized to peptide 1, at least two independent experiments in duplicate
T2 construct: expressed in transfected cells; host or cells: COS-7 (stably transfected, CMKLR1-eYFP + Δ6Gαqi4myr)
T2 sequence (Q99788 1-373): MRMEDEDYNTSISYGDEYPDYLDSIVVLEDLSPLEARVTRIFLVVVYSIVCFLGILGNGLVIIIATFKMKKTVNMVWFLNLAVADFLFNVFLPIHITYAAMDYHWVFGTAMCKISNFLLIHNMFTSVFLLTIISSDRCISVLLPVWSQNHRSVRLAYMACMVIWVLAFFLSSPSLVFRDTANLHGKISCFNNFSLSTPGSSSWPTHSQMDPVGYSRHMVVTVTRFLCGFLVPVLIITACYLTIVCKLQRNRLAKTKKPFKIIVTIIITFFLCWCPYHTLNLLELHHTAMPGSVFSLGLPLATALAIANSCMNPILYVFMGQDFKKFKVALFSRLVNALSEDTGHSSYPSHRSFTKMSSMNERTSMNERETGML
Description: (C) Activity of the cyclic chemerin-9 (cC9) derivatives at CMKLR1 tested in a Ca^2+ flux assay. Data points represent the mean ± SEM of at least two independent experiments performed in duplicate.
Calcium flux assay was performed with cells expressing CMKLR1 and the chimeric G protein Δ6Gαqi4myr.
The stably transfected COS-7_CMKLR1-eYFP_ Δ6Gαqi4myr cells were seeded at 25,000 cells per well into poly-ᴅ-lysine-coated 96-well plates (black µCLEAR, Greiner). The next day, cells were incubated with 2.3 µM Fluo-2-AM (Abcam) and 0.06% (v/v) Pluronic-F127 (Sigma) in assay buffer (2.5 mM probenecid (Sigma), 20 mM 4-(2-hydroxyethyl)-1-piperazineethanesulfonic acid (HEPES, Sigma) in Hanks' Balanced Salt Solution (HBSS, Biowest), pH 7.5) for 1 h. This solution was replaced by assay buffer, and basal Ca2+ signal (λex = 485 nm, λem = 525 nm) was measured for 20 s with a Flexstation 3 plate reader (Molecular Devices). Peptide dilutions were added, and the Ca2+ response was measured for 40 s. The maximum signal over baseline was calculated and normalized to peptide 1 (N3-cC9). Non-linear regression was performed using Prism 10 (GraphPad). Experiments were performed in technical duplicates and at least

p53/MDM2 interaction = biological target: T3, p53/MDM2 interaction (Homo sapiens, UniProt Q00987); assay: Inhibition of intracellular p53-HaloTag/NanoLuc-MDM2 BRET; assay type: cell-based; details: unlabeled peptides, 72 h
T3 construct: host or cells: HEK293 and HEK293_CMKLR1-eYFP
Description: Peptides were incubated on HEK293 and HEK293_CMKLR1-eYFP cells for 72 h, before BRET was measured. Nutlin-3a was incubated on HEK293 cells for 24 h before BRET was measured. Mean ± SEM from two independent experiments performed in duplicate. […]
dividing the Cy5-signal (670±30 nm) by the NanoLuc signal (450±20 nm). netBRET was calculated by subtracting the BRET ratio from cells which were incubated without peptide. To calculate the CMKLR1-specific effect, ΔBRET was calculated by subtracting the netBRET value obtained in cells without CMKLR1 from netBRET obtained in cells with CMKLR1. After the initial readout, a kinetic BRET displacement was performed with the same cells. For this, luminescence was measured every 22 s. After 3 min, 10 µM of the small molecule MDM2 antagonist Nutlin-3a (Sigma) was added to the cells and BRET was measured for another 7 min. Experiments were performed in technical duplicates and three independent times. […]
were then incubated with dilutions of unlabeled PMIγ -peptides for 72 h or with Nutlin-3a for 24 h. […] After 10 min incubation, luminescence was measured, and BRET ratio was calculated by dividing the TMR-signal (600±50 nm) by the NanoLuc signal (450±20 nm). netBRET was calculated and normalized to cells without peptide (100%) and cells which were not label ed with HaloTag TMR Ligand (0%). […]

HEK293_CMKLR1-eYFP cells = assay: Resazurin based cell viability assay, peptides; details: 72 h incubation
Description: page 3: […] 15% FCS. Calcium flux assay Calcium flux assay was performed with cells expressing CMKLR1 and the chimeric G protein […]. The stably transfected COS-7_CMKLR1-eYFP_ […] were seeded at 25,000 cells per well into poly-ᴅ-lysine-coated 96-well plates (black μCLEAR, Greiner). The next day, cells were incubated with […] (Sigma), 20 mM 4-(2-hydroxyethyl)-1-piperazineethanesulfonic acid (HEPES, Sigma) in Hanks' Balanced […] This solution was replaced by assay buffer, and basal Ca2+ signal (λex = 485 nm, λem = 525 nm) was measured for 20 s with a Flexstation 3 plate reader (Molecular Devices). Peptide dilutions were added, and the Ca2+ response was measured for 40 s. The maximum signal over baseline was calculated and normalized to peptide 1 (N3-cC9). Non-linear regression was performed using Prism 10 (GraphPad). Experiments were performed in technical duplicates and at least twice. Cell viability assay HEK293 and HEK293_CMKLR1-eYFP cells were seeded at 15,000 cells per well into poly-ᴅ-lysine coated 96-well plates (black μCLEAR, Greiner). […] Cells were then washed and a resazurin-based cell viability assay was performed. […] (1:1) + 15% FBS without phenol red was added to the cells. […] using the fluorescence of resorufin (λex = 550 nm, λem = 595 nm). Data was normalized to cells incubated without peptide (100%) and cells treated with ethanol for 3 min before resazurin addition (0%). Experiments were performed in technical triplicates and at least twice. Fluorescence microscopy Peptide internalization was evaluated by fluorescence microscopy. […] the cells and incubated for 6 h. […] All shown microscopy images are representative of at least two independent experiments. […] Resazurin based cell viability assay of HEK293 and HEK293_CMKLR1-eYFP cells after 72 h incubation with the p53/MDM2 inhibitor Nutlin-3a. […] 100 50 2Cy 3Cy 4Cy 0 -8 -7 -6 -5 -4 […]], log Figure S4. Resazurin based cell viability assay of HEK293_CMKLR1-eYFP cells after 72 h incubation with the PMIγ peptides discussed in this work. Mean ± SEM from two independent experiments performed in triplicates. 15 […]

[2] = printed as (reference) in the column measured D; calibration standard of the focal volume; source not shown; cited from earlier work
Excerpt: Descriptive statistics of fluorescence correlation spectroscopy (FCS) data from Figure 3. Measurements were obtained in stably transfected HEK293_CMKLR1-eYFP cells as well as endogenously CMKLR1-expressing HMEC-1 and THP-1 cells. SD – standard deviation, GSD – geometric SD factor, IQR – interquartile range applied mean ± SD geometric median (IQR) cell line N° name concentration [nM] mean *÷ GSD [nM] [nM] [nM] HEK29 ...

[3] = read-out: pEC50 ± SEM (converted)

T3 sequence (Q00987 whole entry): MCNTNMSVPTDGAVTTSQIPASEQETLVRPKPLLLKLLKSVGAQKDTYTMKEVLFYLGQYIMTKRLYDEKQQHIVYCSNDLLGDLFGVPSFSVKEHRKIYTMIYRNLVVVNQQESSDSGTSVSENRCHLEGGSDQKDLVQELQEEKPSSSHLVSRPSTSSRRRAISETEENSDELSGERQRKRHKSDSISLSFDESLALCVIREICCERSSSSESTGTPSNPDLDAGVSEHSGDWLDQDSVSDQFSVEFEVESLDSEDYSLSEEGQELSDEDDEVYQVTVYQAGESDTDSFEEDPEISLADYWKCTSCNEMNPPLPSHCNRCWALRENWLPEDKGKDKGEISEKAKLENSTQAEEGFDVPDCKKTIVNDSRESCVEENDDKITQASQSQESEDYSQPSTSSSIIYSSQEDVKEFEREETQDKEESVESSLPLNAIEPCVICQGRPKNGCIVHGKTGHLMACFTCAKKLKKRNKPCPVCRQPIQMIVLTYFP
T1 sequence (Q00987 whole entry): as above

Which Kd [1] does the source give for C#CC[C@H](NC(=O)CCOCCOCCOCCNC(=O)[C@H](CCCNC(N)=O)NC(=O)[C@@H](NC(=O)[C@H](CCC(=O)O)NC(=O)CNC(=O)[C@@H](CCCNC(=N)N)NC(=O)[C@@H](CC(C)C)NC(=O)[C@@H](CC(C)C)NC(=O)[C@@H](C)NC(=O)[C@@H](CCC(=O)O)NC(=O)[C@@H](Cc1ccccc1)NC(=O)[C@@H](C)NC(=O)[C@@H](CC(C)C)NC(=O)[C@H]1CCCN1C(=O)[C@@H](Cc1c[nH]c2ccccc12)NC(=O)[C@@H](Cc1c[nH]c2ccccc12)NC(=O)[C@@H](CC(=O)O)NC(=O)CCOCCOCCOCCNC(=O)[C@@H](CCCNC(=N)N)NC(=O)[C@@H](CCCNC(=N)N)NC(=O)[C@@H](CCCNC(=N)N)NC(=O)[C@@H](CCCNC(=N)N)NC(=O)[C@@H](CCCNC(=N)N)NC(=O)[C@@H](CCCNC(=N)N)NC(=O)[C@@H](CCCNC(=N)N)NC(=O)[C@@H](CCCNC(=N)N)NC(=O)[C@@H](CCCNC(=N)N)NC(=O)CCOCCOCCOCCNC(=O)CCCCC[N+]1=C(C=CC=CC=C2N(C)c3ccc(S(=O)(=O)O)cc3C2(C)C)C(C)(C)c2cc(S(=O)(=O)[O-])ccc21)C(C)C)C(N)=O [4Cy] here?
The Kd was 57.1 ± 21.8 nM.

With CC(=O)N[C@@H](CCCCN=[N+]=[N-])C(=O)N[C@@H](Cc1ccc(O)cc1)C(=O)N[C@@H](Cc1ccccc1)C(=O)N1CCC[C@H]1C(=O)N[C@@H]1CCSSC[C@@H](C(=O)O)NC(=O)[C@H](Cc2ccccc2)NC(=O)[C@H](C)NC(=O)[C@H](Cc2ccccc2)NC(=O)[C@H](CCC(N)=O)NC1=O [compound 1] (Ac-[Lys(N3)]YFP[d(hCys)]QFAFC-OH; disulfide 5-10) as the compound, how does the EC50 (CMKLR1; [3]) read?
Its EC50 is 3.47 nM.

With CC(=O)N[C@@H](CCCCn1cc(C[C@H](NC(=O)CCOCCOCCOCCNC(=O)[C@H](CCCNC(N)=O)NC(=O)[C@@H](NC(=O)[C@H](CCC(=O)O)NC(=O)CNC(=O)CNC(=O)[C@@H](CCCNC(=N)N)NC(=O)[C@@H](CC(C)C)NC(=O)[C@@H](CC(C)C)NC(=O)[C@@H](C)NC(=O)[C@@H](CCC(=O)O)NC(=O)[C@@H](Cc2ccccc2)NC(=O)[C@@H](C)NC(=O)[C@@H](CC(C)C)NC(=O)[C@H]2CCCN2C(=O)[C@@H](Cc2c[nH]c3ccccc23)NC(=O)[C@@H](Cc2c[nH]c3ccccc23)NC(=O)[C@H](N)CC(=O)O)C(C)C)C(N)=O)nn1)C(=O)N[C@@H](Cc1ccc(O)cc1)C(=O)N[C@@H](Cc1ccccc1)C(=O)N1CCC[C@H]1C(=O)N[C@@H]1CCSSC[C@@H](C(=O)O)NC(=O)[C@H](Cc2ccccc2)NC(=O)[C@H](C)NC(=O)[C@H](Cc2ccccc2)NC(=O)[C@H](CCC(N)=O)NC1=O [compound 2] (I: H-[dD][dW][dW][dP][dL][dA][dF][dE][dA][dL][dL][dR]GGEV[Cit][PEG3][Pra]-NH2 / II: Ac-[Lys(N3)]YFP[d(hCys)]QFAFC-OH; triazole I:19-II:1; disulfide II:5-II:10; N-terminus assumed) as the compound, how does the “extent of competition of the p53/MDM2 interaction” value (p53/MDM2 interaction) read?
Its value is “neither achieved full competition”.

And the “displacement of NanoLuc-MDM2/p53-HaloTag BRET” value (p53/MDM2 interaction; HEK293 versus HEK293_CMKLR1-eYFP)?
The value was “CMKLR1-selective effects at extracellular concentrations above 1 μM”.

What about the cytotoxicity (HEK293_CMKLR1-eYFP cells) of the same compound?
The cytotoxicity was “no signs of cytotoxicity”.

Which EC50 (CMKLR1; read-out: EC50) does the source give for “I: GSVSHHHHHHGGHHHH[PEG3][dD][dW][dW][dP][dL][dA][dF][dE][dA][dL][dL][dR]GEV[Cit][PEG3][Pra]-NH2 / II: Ac-[Lys(N3)]YFP[d(hCys)]QFAFC (triazole I:35-II:1; disulfide II:5-II:10) [compound 3]” here?
Its EC50 is 70.6 nM.

And the EC50 (CMKLR1; [3])?
Its EC50 is 70.8 nM.

And the cytotoxicity (HEK293_CMKLR1-eYFP cells)?
Its cytotoxicity is “tolerated slightly worse at concentrations above 1 μM”.

Which “D in solution, reference” value [2] does the source give for sulfo-cyanine5 [sulfo-Cy5] here?
The value was 341.6 µm2/s.

From PMC12814185, “Receptor-Mediated Shuttling of a D‑Amino Acid Peptide Achieves High Nanomolar Cytosolic Concentrations” (Journal of the American Chemical Society, 2025)
